Here are results for two compounds from US20110306922A1, “LIGHT-EMITTING DEVICES FOR PHOTOTHERAPY” (priority 2010, published 2011).

Experiment [1] relates to CHO-K1 (Chinese Hamster Ovarian Cancer, ATCC, CRL-2243) cell line.
Experiment [2] has the same test system. Kind of experiment: cells. To be noted: Cricetulus griseus, CHO-K1, light or radiation study, read-out: cells destroyed (cell viability, light dosimetry).
In experiment [3] the test system is age-related macular degeneration. Kind of experiment: Intravenous verteporphin plus red OLED illumination of the retina, age-related macular degeneration. Type of experiment: in vivo, person. To be noted: about 6 mg/m^2 i.v.; about 20 mW/cm^2 for about 42 minutes, about 50 J/cm. The procedure:
Verteporphin is intravenously injected, over a period of about 10 minutes at a rate of about 3 mL/min, to a person suffering from age-related macular degeneration. The verteporphin (7.5 mL of 2 mg/mL reconstituted solution, available as Visudyne® from Novartis) is diluted with 5% dextrose to a volume of 30 mL using a sufficient quantity of the reconstituted verteporphin so that the total dose injected is about 6 mg/m^2 of body surface.
The treatment is repeated as needed.

The next experiment has as its system pathological myopia. Kind of experiment: Intravenous verteporphin plus red OLED illumination of the retina, pathological myopia. It is filed as in vivo, person. To be noted: about 6 mg/m^2 i.v.; about 20 mW/cm^2 for about 42 minutes, about 50 J/cm2. The protocol: Verteporphin is intravenously injected, over a period of about 10 minute at a rate of about 3 mL/min, to a person suffering from pathological myopia. The verteporphin (7.5 mL of 2 mg/mL reconstituted solution, available as Visudyne® from Novartis) is diluted with 5% dextrose to a volume of 30 mL using a sufficient quantity of the reconstituted verteporphin so that the total dose injected is about 6 mg/m^2 of body surface.
After treatment, the patient's vision is anticipated to be stabilized. The treatment is repeated as needed.

In experiment [4] the test system is presumed ocular histoplasmosis. Also on record: species or system person. To be noted: in vivo, iv.

Consider `NCC(=O)CCC(=O)O` [ALA, 5-aminolevulinic acid], for which the “generation of PpIX (fluorescence emission at 635 nm)” value in experiment [1] (ALA 0.5 mM, 1 mM, 2 mM, incubated about 16 hrs at 37° C.) is reported as “confirmed”. In addition, the “optical microscope images of the cells: healthy leafy type cells transform to droplet type” value in experiment [1] (after 25 J/cm^2 red light (630 nm) irradiation from OLED) is reported as “significant cell death”. Further, the cytotoxicity at 1000 µM in experiment [2] was about 90%.
For the compound `C=Cc1c(C)c2cc3nc(cc4[nH]c(cc5nc(cc1[nH]2)C(C)=C5CCC(=O)O)c(CCC(=O)OC)c4C)[C@@]1(C)C3=CC=C(C(=O)OC)[C@H]1C(=O)OC` [Verteporphin], the “patient's vision” value (in experiment [3]; in the experiment on pathological myopia; in experiment [4]) was “stabilized” each time.
